According to ChEMBL document CHEMBL3044902, “Effect of Optically Active Ethyl 2-Phthalimidooxypropionate on the Growth of Cress, Lepidium sativum” (1999):

Experiments:
Type in all cases: functional
Lepidium sativum [1] = test: Inhibition of root growth of Lepidium sativum at 100 ppm relative to untreated control; details: read-out: GI
Lepidium sativum [2] = test: Inhibition of root growth of Lepidium sativum at 1 ppm relative to untreated control; details: read-out: GI
Lepidium sativum [3] = test: Inhibition of germination of Lepidium sativum at 10 ppm relative to untreated control
Lepidium sativum [4] = test: Inhibition of germination of Lepidium sativum at 100 ppm relative to untreated control
Lepidium sativum [5] = test: Inhibition of root growth of Lepidium sativum at 0.38 microM relative to untreated control; details: read-out: GI
Lepidium sativum [6] = test: Inhibition of root growth of Lepidium sativum at 3.8 microM relative to untreated control; details: read-out: GI
Lepidium sativum [7] = test: Inhibition of root growth of Lepidium sativum at 1.1 microM relative to untreated control; details: read-out: GI

| Compound | inhibition of growth at 100 ppm (Lepidium sativum [1]) | inhibition of growth at 1 ppm (Lepidium sativum [2]) | inhibition at 10 ppm (Lepidium sativum [3]) | inhibition at 100 ppm (Lepidium sativum [4]) | inhibition of growth at 0.38 µM (Lepidium sativum [5]) | inhibition of growth at 3.8 µM (Lepidium sativum [6]) | inhibition of growth at 1.1 µM (Lepidium sativum [7]) |
| --- | --- | --- | --- | --- | --- | --- | --- |
| CCOC(=O)CON1C(=O)c2ccccc2C1=O | 100% | 0% | 0% | 100% |  |  |  |
| CCOC(=O)[C@@H](C)ON1C(=O)c2ccccc2C1=O |  |  |  |  | 0% | 14% | 5% |
| CCCCCOC(=O)C(C)ON1C(=O)c2ccccc2C1=O (configuration not stated) |  | 64% |  |  |  |  |  |
| CCOC(=O)C(C)ON1C(=O)c2ccccc2C1=O (configuration not stated) | 100% | 68% | 0% | 100% |  |  |  |
| CCOC(=O)[C@H](C)ON1C(=O)c2ccccc2C1=O |  |  |  |  | 35% | 72% | 49% |
| CC(ON1C(=O)c2ccccc2C1=O)C(=O)OC(C)(C)C (configuration not stated) |  | 1% |  |  |  |  |  |
| CCC(C)OC(=O)C(C)ON1C(=O)c2ccccc2C1=O (configuration not stated) |  | 42% |  |  |  |  |  |
| CCCOC(=O)C(C)ON1C(=O)c2ccccc2C1=O (configuration not stated) |  | 64% |  |  |  |  |  |
| CC(C)OC(=O)C(C)ON1C(=O)c2ccccc2C1=O (configuration not stated) |  | 51% |  |  |  |  |  |
| CCCCOC(=O)C(C)ON1C(=O)c2ccccc2C1=O (configuration not stated) |  | 59% |  |  |  |  |  |
| CCOC(=O)C(Cc1ccccc1)ON1C(=O)c2ccccc2C1=O (configuration not stated) | 70% | 0% |  | 0% |  |  |  |
| CCCC(C)ON1C(=O)c2ccccc2C1=O (configuration not stated) | 56% | 0% |  | 0% |  |  |  |
| CCOC(=O)C(C)CN1C(=O)c2ccccc2C1=O (configuration not stated) | 41% | 0% |  | 0% |  |  |  |
| COC(=O)C(C)ON1C(=O)c2ccccc2C1=O (configuration not stated) |  | 64% |  |  |  |  |  |
| CCCCCCC(ON1C(=O)c2ccccc2C1=O)C(=O)OCC (configuration not stated) | 72% | 0% |  | 0% |  |  |  |
| CCOC(=O)C(ON1C(=O)c2ccccc2C1=O)c1ccccc1 (configuration not stated) | 60% | 0% |  | 0% |  |  |  |
| CCOC(=O)C(C)(C)ON1C(=O)c2ccccc2C1=O | 95% | 0% | 0% | 60% |  |  |  |
| CCOC(=O)C(CC)ON1C(=O)c2ccccc2C1=O (configuration not stated) | 94% | 0% | 0% | 80% |  |  |  |
| CCOC(=O)C(C)ON1C(=O)c2ccccc2C1=O (racemic) |  |  |  |  | 14% | 68% | 33% |
